Counter-ions that a name gives are not always drawn. Some results are limits rather than exact numbers.

Data on 25 molecules can be found in US10689377B2 (Mirati Therapeutics, Inc., priority 2017, dated 2020).

In this experiment the target is KRas G12C (Homo sapiens, UniProt P01116, G12C). Put plainly: Cellular inhibition of KRas G12C measured by Phospho-ERK in NCI-H358 cells. It is filed as cell-based. Particulars: pERK(Thr202/Tyr204) normalized with GAPDH, NCI-H358 cells, 3 hours; read-out: IC50. In short, it runs like this: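 Following 8-12 h attachment, NCI-H358 cells got serially diluted compound (0.5% DMSO) for 3 hours. Cells were then fixed, permeabilized with cold methanol, and stained for pERK(Thr202/Tyr204) and GAPDH. Ratios were converted to percent of DMSO control, with IC50 obtained by four-parameter regression.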
KRas G12C, sequence (P01116 1-188 isoform P01116-2 G12C): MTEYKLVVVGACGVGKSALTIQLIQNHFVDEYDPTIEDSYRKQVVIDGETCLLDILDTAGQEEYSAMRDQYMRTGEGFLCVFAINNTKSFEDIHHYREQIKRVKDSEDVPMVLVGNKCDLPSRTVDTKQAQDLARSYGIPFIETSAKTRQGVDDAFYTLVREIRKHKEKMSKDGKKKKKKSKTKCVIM
For `C=CC(=O)N1CCN(c2nc(OC[C@@H]3CCCN3C)nc3c2CCN(c2cccc4ccccc24)C3)C(C)(C)C1` [Example 354, 1-[3,3-dimethyl-4-[2-[[(2S)-1-methylpyrrolidin-2-yl]methoxy]-7-(1-naphthyl)-6,8-dihydro-5H-pyrido[3,4-d]pyrimidin-4-yl]piperazin-1-yl]prop-2-en-1-one], the half-maximal inhibitory concentration (IC50) was more than 1000 nM. With `C=CC(=O)N1CCN(c2nc(OC[C@@H]3CCCN3C)nc3c2CCN(c2cccc4c(F)cccc24)C3)CC1CC#N` (stereo partly drawn) [Example 254, 2-[4-[7-(5-fluoro-1-naphthyl)-2-[[(2S)-1-methylpyrrolidin-2-yl]methoxy]-6,8-dihydro-5H-pyrido[3,4-d]pyrimidin-4-yl]-1-prop-2-enoyl-piperazin-2-yl]acetonitrile], the IC50 fell in the range of 0.1 to 1000 nM.

Regarding `CN1CCC[C@H]1COc1nc2c(c(N3CCN(C(=O)/C=C/CN4CCOCC4)[C@@H](CC#N)C3)n1)CCN(c1cccc(Cl)c1C(F)(F)F)C2` [Example 346, 2-[(2S)-4-[7-[3-chloro-2-(trifluoromethyl)phenyl]-2-[[(2S)-1-methylpyrrolidin-2-yl]methoxy]-6,8-dihydro-5H-pyrido[3,4-d]pyrimidin-4-yl]-1-[(E)-4-morpholinobut-2-enoyl]piperazin-2-yl]acetonitrile], the IC50 fell in the range of 0.1 to 1000 nM. Then `C=CC(=O)N1CCN(c2nc(OC[C@@H]3C[C@@H](O)CN3C)nc3c2CCN(c2cccc4ccccc24)C3)C[C@@H]1CC#N` [Example 315, 2-[(2S)-4-[2-[[(2S,4R)-4-hydroxy-1-methyl-pyrrolidin-2-yl]methoxy]-7-(1-naphthyl)-6,8-dihydro-5H-pyrido[3,4-d]pyrimidin-4-yl]-1-prop-2-enoyl-piperazin-2-yl]acetonitrile], with 0.1 to 1000 nM; and `C=CC(=O)N1CCN(c2nc(OCCN(C)C)nc3c2CCN(c2cc(O)cc4ccccc24)C3)C[C@@H]1C` [Example 14], with more than 1000 nM. Then `C=CC(=O)N1CCN(c2nc(OCCN3CCCCC3)nc3c2CCN(c2cccc4cccc(Cl)c24)C3)C[C@@H]1CC#N` [Example 362, 2-[(2S)-4-[7-(8-chloro-1-naphthyl)-2-[2-(1-piperidyl)ethoxy]-6,8-dihydro-5H-pyrido[3,4-d]pyrimidin-4-yl]-1-prop-2-enoyl-piperazin-2-yl]acetonitrile], with 0.1 to 1000 nM. Turning to `C=CC(=O)N1CCN(c2nc(O[C@H](C)CN(C)C)nc3c2CCN(c2cc(O)cc4ccccc24)C3)CC1CC#N` (stereo partly drawn) [Example 150, 2-(1-acryloyl-4-(2-(((R)-1-(dimethylamino)propan-2-yl)oxy)-7-(3-hydroxynaphthalen-1-yl)-5,6,7,8-tetrahydropyrido[3,4-d]pyrimidin-4-yl)piperazin-2-yl)acetonitrile], the IC50 is 0.1 to 1000 nM. Then `C=CC(=O)N1CCN(c2nc(OC[C@@H]3CCCN(C)C3)nc3c2CCN(c2cc(O)cc4ccccc24)C3)CC1` [Example 192, (R)-1-(4-(7-(3-hydroxynaphthalen-1-yl)-2-((1-methylpiperidin-3-yl)methoxy)-5,6,7,8-tetrahydropyrido[3,4-d]pyrimidin-4-yl)piperazin-1-yl)prop-2-en-1-one], with 0.1 to 1000 nM; and `C=CC(=O)N1CCN(c2nc(OC[C@@H]3CCCN3C)nc3c2CCN(c2cccc4cccc(C)c24)C3)CC1CC#N` (stereo partly drawn) [Example 309, 2-(1-acryloyl-4-(7-(8-methylnaphthalen-1-yl)-2-(((S)-1-methylpyrrolidin-2-yl)methoxy)-5,6,7,8-tetrahydropyrido[3,4-d]pyrimidin-4-yl)piperazin-2-yl)acetonitrile], with 0.1 to 1000 nM; and `C=CC(=O)N1CCN(c2nc(OC[C@@H]3CCCN3C)nc3c2CCN(c2cncc(Cl)c2C)C3)C[C@@H]1CC#N` [Example 387, 2-((S)-1-acryloyl-4-(7-(5-chloro-4-methylpyridin-3-yl)-2-(((S)-1-methylpyrrolidin-2-yl)methoxy)-5,6,7,8-tetrahydropyrido[3,4-d]pyrimidin-4-yl)piperazin-2-yl)acetonitrile], with 0.1 to 1000 nM. Then `C=CC(=O)N1CCN(c2nc(OCCN(C)CCO)nc3c2CCN(c2cc(O)cc4ccccc24)C3)CC1` [Example 83, 1-(4-(2-(2-((2-hydroxyethyl)(methyl)amino)ethoxy)-7-(3-hydroxynaphthalen-1-yl)-5,6,7,8-tetrahydropyrido[3,4-d]pyrimidin-4-yl)piperazin-1-yl)prop-2-en-1-one], with more than 1000 nM; and `C=C(F)C(=O)N1CCN(c2ncnc3c2CCN(c2cccc4cccc(C)c24)C3)C[C@@H]1CC#N` [Example 611, (S)-2-(1-(2-fluoroacryloyl)-4-(7-(8-methylnaphthalen-1-yl)-5,6,7,8-tetrahydropyrido[3,4-d]pyrimidin-4-yl)piperazin-2-yl)acetonitrile], with more than 1000 nM. As to `C=CC(=O)N1CCN(c2nc(OC3CCN(C)C3)nc3c2CCN(c2cc(O)cc4ccccc24)C3)CC1` (stereo not shown) [Example 23, 1-(4-(7-(3-hydroxynaphthalen-1-yl)-2-((1-methylpyrrolidin-3-yl)oxy)-5,6,7,8-tetrahydropyrido[3,4-d]pyrimidin-4-yl)piperazin-1-yl)prop-2-en-1-one], the IC50 is more than 1000 nM.

As to `C=CC(=O)N1CCN(c2nc(N3CCCC3)nc3c2CCN(c2cc(O)cc4ccccc24)C3)CC1` [Example 119, 1-(4-(7-(3-hydroxynaphthalen-1-yl)-2-(pyrrolidin-1-yl)-5,6,7,8-tetrahydropyrido[3,4-d]pyrimidin-4-yl)piperazin-1-yl)prop-2-en-1-one], the IC50 is more than 1000 nM. In the case of `C=C(F)C(=O)N1CCN(c2nc(OCC3CCCC3)nc3c2CCN(c2cccc4cccc(C)c24)C3)C[C@@H]1CC#N` [Example 603, 2-[(2S)-4-[2-(cyclopentylmethoxy)-7-(8-methyl-1-naphthyl)-6,8-dihydro-5H-pyrido[3,4-d]pyrimidin-4-yl]-1-(2-fluoroprop-2-enoyl)piperazin-2-yl]acetonitrile] it was more than 1000 nM; in that of `C=CC(=O)N1CCN(c2nc(OC[C@@H](O)CN3CCOCC3)nc3c2CCN(c2cc(O)cc4ccccc24)C3)CC1` (single isomer, unassigned) [Example 216], more than 1000 nM.

`C=CC(=O)N1CCN(c2nc(OCCN(CC)CC)nc3c2CCN(c2c(C)ccc4[nH]ncc24)C3)CC1` [Example 163, 1-(4-(2-(2-(diethylamino)ethoxy)-7-(5-methyl-1H-indazol-4-yl)-5,6,7,8-tetrahydropyrido[3,4-d]pyrimidin-4-yl)piperazin-1-yl)prop-2-en-1-one]: the IC50 is more than 1000 nM. Then `C=CC(=O)N1CCN(c2nc(OC[C@@H]3CCCN3C)nc3c2CCN(c2cccc4ccn(C)c24)C3)C[C@@H]1CC#N` [Example 436, 2-((S)-1-acryloyl-4-(7-(1-methyl-1H-indol-7-yl)-2-(((S)-1-methylpyrrolidin-2-yl)methoxy)-5,6,7,8-tetrahydropyrido[3,4-d]pyrimidin-4-yl)piperazin-2-yl)acetonitrile], with 0.1 to 1000 nM. In the case of `C=CC(=O)N1CCN(c2nc(OC[C@@H]3CCCN3C)nc3c2CCN(c2ccc(F)cc2C(F)(F)F)C3)CC1CC#N` (stereo partly drawn) [Example 413, 2-(1-acryloyl-4-(7-(4-fluoro-2-(trifluoromethyl)phenyl)-2-(((S)-1-methylpyrrolidin-2-yl)methoxy)-5,6,7,8-tetrahydropyrido[3,4-d]pyrimidin-4-yl)piperazin-2-yl)acetonitrile] it was 0.1 to 1000 nM. Then `C=CC(=O)N1CCN(c2nc(OC[C@@H]3CCN(C)C3)nc3c2CCN(c2c(C(F)(F)F)ccc4[nH]ncc24)C3)CC1CC#N` (stereo partly drawn) [Example 313, 2-[4-[2-[[(3R)-1-methylpyrrolidin-3-yl]methoxy]-7-[5-(trifluoromethyl)-1H-indazol-4-yl]-6,8-dihydro-5H-pyrido[3,4-d]pyrimidin-4-yl]-1-prop-2-enoyl-piperazin-2-yl]acetonitrile], with 0.1 to 1000 nM; and `C=C(F)C(=O)N1CCN(c2nc(OCc3ccccn3)nc3c2CCN(c2cccc4cccc(C)c24)C3)C[C@@H]1CC#N` [Example 605, 2-[(2S)-1-(2-fluoroprop-2-enoyl)-4-[7-(8-methyl-1-naphthyl)-2-(2-pyridylmethoxy)-6,8-dihydro-5H-pyrido[3,4-d]pyrimidin-4-yl]piperazin-2-yl]acetonitrile], with more than 1000 nM; and `C=CC(=O)N1CCN(c2nc(OC[C@H]3CCCN3C)nc3c2CCN(c2ccccc2C(F)(F)F)C3)CC1CC#N` (stereo partly drawn) [Example 283, 2-(1-acryloyl-4-(2-(((R)-1-methylpyrrolidin-2-yl)methoxy)-7-(2-(trifluoromethyl)phenyl)-5,6,7,8-tetrahydropyrido[3,4-d]pyrimidin-4-yl)piperazin-2-yl)acetonitrile], with 0.1 to 1000 nM.

As to `C=C(F)C(=O)N1CCN(c2nc(OC[C@@H]3C[C@@H](F)CN3C)nc3c2CCN(c2c(C)c(C)cc4[nH]ncc24)C3)C[C@@H]1CC#N` [Example 606, 2-((S)-4-(7-(5,6-dimethyl-1H-indazol-4-yl)-2-(((2S,4R)-4-fluoro-1-methylpyrrolidin-2-yl)methoxy)-5,6,7,8-tetrahydropyrido[3,4-d]pyrimidin-4-yl)-1-(2-fluoroacryloyl)piperazin-2-yl)acetonitrile], the IC50 lay within 0.1 to 1000 nM. Then `C=CC(=O)N1C[C@H](C)N(c2nc(OC[C@@H]3CCCN3C)nc3c2CCN(c2cccc4ccccc24)C3)C[C@@H]1CC#N` [Example 368, 2-((2S,5S)-1-acryloyl-5-methyl-4-(2-(((S)-1-methylpyrrolidin-2-yl)methoxy)-7-(naphthalen-1-yl)-5,6,7,8-tetrahydropyrido[3,4-d]pyrimidin-4-yl)piperazin-2-yl)acetonitrile], with more than 1000 nM.

Turning to `C=CC(=O)N1CCN(c2nc(OCCCN3CCS(=O)(=O)CC3)nc3c2CCN(c2cc(O)cc4ccccc24)C3)CC1` [Example 34, 1-(4-(2-(3-(1,1-dioxidothiomorpholino)propoxy)-7-(3-hydroxynaphthalen-1-yl)-5,6,7,8-tetrahydropyrido[3,4-d]pyrimidin-4-yl)piperazin-1-yl)prop-2-en-1-one trifluoroacetate], the IC50 is more than 1000 nM.
